Laboratory results: PubChem BioAssay (NCI)
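Cultured in 96-well plates, cells were exposed to test compound for 48 hours across five concentrations. Here, GI50 denotes the concentration required for 50% inhibition of growth. TGI: concentration producing complete growth inhibition.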

Key:
Assay in all cases: growth of human tumour cells (NCI), 48 h
[1] = tested on: 786-0 renal
[2] = tested on: A498 renal
[3] = tested on: A549 NSCLC
[4] = tested on: ACHN renal
[5] = tested on: BT-549 breast
[6] = tested on: CAKI-1 renal
[7] = tested on: CCRF-CEM leukemia
[8] = tested on: COLO 205 colon
[9] = tested on: DU-145 prostate
[10] = tested on: EKVX NSCLC
[11] = tested on: HCC-2998 colon
[12] = tested on: HCT-116 colon
[13] = tested on: HCT-15 colon
[14] = tested on: HL-60(TB) leukemia
[15] = tested on: HOP-62 NSCLC
[16] = tested on: HOP-92 NSCLC
[17] = tested on: HS 578T breast
[18] = tested on: HT29 colon
[19] = tested on: IGROV1 ovarian
[20] = tested on: K-562 leukemia
[21] = tested on: KM12 colon
[22] = tested on: LOX IMVI melanoma
[23] = tested on: M14 melanoma
[24] = tested on: MALME-3M melanoma
[25] = tested on: MCF7 breast
[26] = tested on: MDA-MB-231 breast
[27] = tested on: MDA-MB-435
[28] = tested on: MOLT-4 leukemia

In the case of `Cn1cncc1-c1c(F)cncc1NC(=O)c1c(N)nn2cc(F)cnc12`, the GI50 [1] is reported as 338 nM, the TGI [1] is reported as over 100 µM and the GI50 [2] is reported as 526 nM. The TGI [2] was 8.83 µM, the GI50 [3] was 2270 nM and the TGI [3] was over 100 µM. The GI50 [4] was 422 nM, the TGI [4] was over 100 µM and the GI50 [5] was 838 nM. It also gave a TGI [5] of 15.4 µM, a GI50 [6] of 1450 nM and a TGI [6] of 21.7 µM. The GI50 [7] was 72.3 nM, the TGI [7] was 22.8 µM and the GI50 [8] was 5.68 µM. It also gave a TGI [8] of over 100 µM, a GI50 [9] of 803 nM and a TGI [9] of 49.3 µM. For the same molecule, the GI50 [10] was 5.18 µM, the TGI [10] was over 100 µM and the GI50 [11] was 61.2 nM. It also gave a TGI [11] of over 100 µM, a GI50 [12] of 2070 nM and a TGI [12] of 16.3 µM. It also gave a GI50 [13] of 180 nM, a TGI [13] of over 100 µM and a GI50 [14] of 272 nM. For the same molecule, the TGI [14] was 717 nM, the GI50 [15] was 5.21 µM and the TGI [15] was over 100 µM. For the same molecule, the GI50 [16] was 4.43 µM, the TGI [16] was 69.4 µM and the GI50 [17] was 1210 nM. For the same molecule, the TGI [17] was 24.2 µM, the GI50 [18] was 3.61 µM and the TGI [18] was over 100 µM. The GI50 [19] was 2540 nM, the TGI [19] was 13.8 µM and the GI50 [20] was 389 nM. The TGI [20] was over 100 µM, the GI50 [21] was 1520 nM and the TGI [21] was over 100 µM. The GI50 [22] was 238 nM, the TGI [22] was 10.4 µM and the GI50 [23] was 231 nM. The TGI [23] was 91.4 µM, the GI50 [24] was 5.16 µM and the TGI [24] was 68.5 µM. The GI50 [25] was 51.5 nM, the TGI [25] was 56.4 µM and the GI50 [26] was 4.72 µM. It also gave a TGI [26] of over 100 µM, a GI50 [27] of 933 nM and a TGI [27] of over 100 µM. It also gave a GI50 [28] of 203 nM and a TGI [28] of 1100 nM.
